Values of other authors, collected in US20120003311A9, “METHOD FOR CONTROLLED RELEASE OF AN ACID-UNSTABLE PHYSIOLOGICALLY ACTIVE SUBSTANCE” (EISAI R&D MANAGEMENT CO., LTD., priority 2004, published 2012).

Key:
[1] = descending colon vs jejunum

Compound | half-life at pH 7 | absorption rate in the descending colon as percentage of that of the jejunum [1]
COc1ccnc(C[S+]([O-])c2nc3cc(OC(F)F)ccc3[nH]2)c1OC (centres unmarked) [pantoprazole] | 39 hours | 
COCCCOc1ccnc(C[S+]([O-])c2nc3ccccc3[nH]2)c1C (centres unmarked) [rabeprazole sodium] |  | ≤ 20%
